According to US5552156A, “Liposomal and micellular stabilization of camptothecin drugs” (Ohio State University, priority 1995, dated 1996):

Columns and labels:
Format in all cases: physicochemical
[1] = Overall association constant by fluorescence anisotropy titration, DMPC liposomes; details: DMPC, pH 3.0
[2] = Fluorescence excitation and emission spectra of camptothecin drugs free in solution and bound to liposomes
From the text: The camptothecin drugs are intrinsically intensely fluorescent. Fluorescence is associated with the extended conjugation of the quinoline ring system. The liposomes of Examples 1-7 were characterized for the presence of the camptothecin drugs, using excitation and emission spectrography, and fluorescence anisotropy.
(§1) Steady-state fluorescence measurements were obtained on a SLM Model 4800C. spectrofluorometer with a thermostated cuvette compartment. This instrument was interfaced with an IBM PS/2 model 55 SX computer. Excitation and emission spectra were recorded with an excitation resolution of 8 nm and an emission resolution of 4 nm. In all cases spectra were corrected for background fluorescence and scatter from unlabeled lipids or from solvents by subtraction of the spectrum of a blank. Steady-state fluorescence intensity measurements were made in the absence of polarizer. Steady-state anisotropy (a) measurements were determined with the instrument in the "T-format" for simultaneous measurement of two polarized intensities. The alignment of polarizers were checked routinely using a dilute suspension of 0.25 μm polystyrene microspheres from Polysciences, Inc, Warrington, Pa., in water; anisotropy values of >0.99 were obtained. The anisotropy was calculated from a=(Ivv -GlVH)/(Ivv +GIVH), where G-IVH /IHH and the subscripts refer to vertical and horizontal orientations of the excitation and emission polarizers, respectively.
(§2) Anisotropy measurements for camptothecin, camptothecin carboxylate sodium salt, and 10,11-methylenedioxycamptothecin were conducted using exciting light of 370 nm and 420 nm long wave pass filters on each emission channel in order to isolate the fluorescence signal from background scatter and signal. For topotecan a 400 nm excitation wavelength and a 500 nm emission filter were used and for 9-aminocamptothecin a 375 nm excitation and a wavelength 420 nm emission filter were used. For AMC and CMC, a 370 nm excitation wavelength and a 400 nm emission filter were used. For 10-hydroxycamptothecin 375 nm excitation wavelength 500 nm emission filter was used. Emission filters were obtained from Oriel Corp. Stamford, Conn. The combination of exciting light and emission filters allows one to adequately separate the fluorescence from the background signal. The contribution of background fluorescence, together with scattered light, was typically less than 1% of the total intensity. Since the lactone ring of the camptothecin drug undergoes hydrolysis in aqueous medium, all measurements were completed within the shortest possible time, less than 1 minute after mixing the drug stock solution with PBS or the liposomes. In each case, analysis was initiated immediately after mixing the drug stock solution with PBS or with the liposomes. All measurements were performed at 37° C. unless otherwise noted.
The relative fluorescence intensity of 1×10^-6 M of camptothecin free in PBS buffer at 37° C. is shown. The emission spectra of the camptothecin was recorded using exciting light of 370 nm.
An exciting light of 390 nm was used to record the emission spectra of topotecan. A decrease in the emission intensity is observed for topotecan associated with the DMPG liposome.
All spectra were recorded using camptothecin drug concentrations of 2
μM. The DMPC and DMPG concentrations were 0.29 M. Experiments were
conducted in PBS buffer at 37° C.
Also found in Table II is a relative index of the emission intensity levels from these camptothecin drugs in PBS at their respective excitation and emission λMAX.

[3] = Steady-state fluorescence anisotropy in solvents and liposomes; details: pH 3, 37° C.
Method: as §1, §2
While the spectral changes provide qualitative evidence that the camptothecin drugs bind the liposome membranes, fluorescence anisotropy titration, offers the most sensitive means for quantitatively assessing the extent of the binding. The fluorescence anisotropy titration was performed according to the method of Burke and Tritton, Biochemistry 24: 1768-1776 (1985).
A steady-state fluorescence anisotropy (a) measurement is related to the rotational rate of the fluorescent molecule through the Perrin Equation: […]
where a0 is the limiting fluorescence anisotropy value, that is, the anisotropy value in the absence of depolarizing rotations, T is the excited-state lifetime, and .phi. is the rotational correlative time of the fluorophore. According to Equation 1, changes in either the T or .phi. values of a fluorescent compound can modulate its steady-state anisotropy.
The limiting fluorescence anisotropy (a0) values were also measured. The maximum values of (a) were obtained by dissolving the camptothecin drugs in the viscous solvent glycerol and cooling the samples to low temperatures. Steady-stated anisotropy (a) values were determined for samples containing 1 μM drug at 37° C.
Where the solvent viscosity is high and temperature is low, depolarizing rotations are at a minimum. By extrapolating these (a) values to -25° C., the limiting anisotropy values (a0) for the camptothecin drugs, were determined. […]

[4] = HPLC assay of lactone ring hydrolysis, free in PBS or associated with liposomes or micelles
Method: A high performance liquid chromatography assay was used to determine the rate of hydrolysis of camptothecin and topotecan free in aqueous solution and to compare such rates with the rate of hydrolysis for the same drugs when bound to the DMPG and DMPC liposome membranes. The assay was conducted under near physiological conditions; the pH was 7.4, the temperature was 37° C. and the ionic strength was physiological. A Spectroflow model 980 fluorescence detector coupled to an HP 3392A integrator which acquired and processed the chromatograms, was used. For camptothecin, an Ultrasphere ODS C-18 250 mm long column was used. The mobile phase consisted of 32% acetonitrile, 67% 0.1M acetate buffer, pH 5.5, and 1% 01.M sodium dodecylsulfate at a flow rate of 1 mL/min. The detector was set to 370 nm excitation wavelength and a 418 nm long pass emission filter. A 1 μM solution of camptothecin in PBS was prepared and incubated at 37° C. Immediately after mixing the drug stock solution with PBS and at intervals of 5 min thereafter, 50 μL aliquots were taken out and mixed with 150 μL methanolic internal standard, 9-toluoylamidocamptothecin and either analyzed immediately or kept cold under dry ice. 150 μL of this mixture was diluted with 125 μL water and 200 μL was injected. The ratio of the peak areas corresponding to the intact lactone form of the camptothecin drug and the internal standard at a particular time was normalized to that at the time of mixing and was considered as the concentration of the intact lactone form.
For topotecan the excitation wavelength was 362 nm and the emission was observed through a 470 long wave pass filter. The stationary phase was Waters Nova-Pak C-18 150mm long column. The mobile phase consisted of 500 mL 0.1M KH2 PO4, 550 mL acetonitrile, 4.2 mL triethylamine (distilled over molecular sieves), 4.44 g sodium dioctylsulfosuccinate (DOSS), and 970 ml water. The pH was adjusted to 6.0 with H3 PO4. Internal standard solution contained 50×10^-9 g acridine from Eastman and 20×10^-3 M DOSS in methanol and was always kept cold at ≤-20° C. Next 150 μL or cold internal standard solution was mixed with 50 μL aliquot containing topotecan, centrifuged for 1 minute and the supernatant was either analyzed immediately or stored at -20° C. for analysis at a later time, within 2 hours. Samples were monitored at time points from 0 minutes, that is, immediately following dissolution, up to 72 hours.
The kinetics of lactone ring hydrolysis for free camptothecin, CMC and topotecan are shown in of FIGS. 7a, 7b and 7c. Analysis of the decay profile for camptothecin, CMC and topotecan free in PBS was accomplished using a nonlinear least squares program.

CCC1(O)C(=O)OCc2c1cc1n(c2=O)Cc2cc3c(N)cccc3nc2-1 (centres unmarked) [9-aminocamptothecin]
overall association constant K, DMPC [1]: 25 M⁻¹
λMAX emission, DMPC ([2]; DMPC liposomes 0.29 M, pH 7.4, 37° C.): 442 nm
λMAX emission, DMPG ([2]; DMPG liposomes 0.29 M, pH 7.4, 37° C.): 436 nm
shift of emission maxima upon decrease of pH / protonation ([2]; free in PBS): about 25 nm
reduction in emission intensity levels relative to camptothecin ([2]; free in PBS, pH 7.4): 1000 -fold
λMAX emission, PBS ([2]; free in PBS, pH 7.4, 37° C.): 439 nm
Relative Fluorescence ([2]; in PBS, pH 7.4, at excitation and emission λMAX): 0.001
λMAX excitation ([2]; pH 3.0): 381 nm
spectral shift on association with DMPC liposomes, towards the blue region ([2]; pH 3.0, DMPC): 13 nm
λMAX emission, DMPC ([2]; pH 3.0, DMPC liposomes): 477 nm
Relative Fluorescence ([2]; pH 3.0, PBS): 0.001
λMAX emission, PBS ([2]; pH 3.0, free in PBS): 464 nm
λMAX excitation ([2]; pH 7.4, 2 μM drug, PBS, 37° C.): 381 nm
steady-state anisotropy (a), DMPC ([3]; DMPC liposomes): 0.190
steady-state anisotropy (a), PBS ([3]; PBS): 0.009
lactone hydrolysis when associated with liposomes ([4]; DMPC and DMPG liposomes): some hydrolysis occurred at 1 hour
C/L drug DMPC Lip. ([4]; DMPC liposomes, pH 7.4, 37° C.): 0.45
t1/2 drug DMPC Lip. ([4]; DMPC liposomes, pH 7.4, 37° C.): 56 min
C/L drug DMPG Lip. ([4]; DMPG liposomes, pH 7.4, 37° C.): 0.15
t1/2 drug DMPG Lip. ([4]; DMPG liposomes, pH 7.4, 37° C.): 49 min
lactone ring hydrolysis at 5 hours ([4]; DMPG or DMPC liposomes, 5 hours): ≤ 40%
carboxylate/lactone ratio (C/L) free drug ([4]; final equilibrium, free in PBS, pH 7.4, 37° C.): 6.0
t1/2 free drug ([4]; lactone hydrolysis, free in PBS, pH 7.4, 37° C.): 22.5 min
